Results published in paper PMC4450297, “Screening Active Compounds from Garcinia Species Native to China Reveals Novel Compounds Targeting the STAT/JAK Signaling Pathway” (BioMed Research International, 2015).

What was measured:
Test in all cases: Cell panel screen (CellTiter-Glo)
Assay type in all cases: cell-based, human
HCC1569 = HCC1569 (Breast), 20 micromolar, 72 hrs
Summary of the method: (§1)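 Here, cancer cells cultured in medium with 10% FBS are treated for 72 h with each compound at 20 μM final. Viability is measured by ATP-dependent luminescence, and growth inhibition is calculated as a percentage against vehicle-only wells minus cell-free background.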

NCI-H1770 = NCI-H1770 (Lung), 20 micromolar, 72 hrs
Summary of the method: as §1

HT-1197 = HT-1197 (Urinary bladder), 20 micromolar, 72 hrs
Summary of the method: as §1

NCI-H28 = NCI-H28 (Lung), 20 micromolar, 72 hrs
Summary of the method: as §1

HGC-27 = HGC-27 (Stomach), 20 micromolar, 72 hrs
Summary of the method: as §1

HPAF-II = HPAF-II (Pancreas), 20 micromolar, 72 hrs
Summary of the method: as §1

RL95 = RL95 (Uterus), 20 micromolar, 72 hrs
Summary of the method: as §1

HEC-1-A = HEC-1-A (Uterus), 20 micromolar, 72 hrs
Summary of the method: as §1

SW13 = SW13 (Adrenal gland), 20 micromolar, 72 hrs
Summary of the method: as §1

A704 = A704 (Kidney), 20 micromolar, 72 hrs
Summary of the method: as §1

BT-474 = BT-474 (Breast), 20 micromolar, 72 hrs
Summary of the method: as §1

A498 = A498 (listed under Lung), 20 micromolar, 72 hrs
Summary of the method: as §1

J82 = J82 (Urinary bladder), 20 micromolar, 72 hrs
Summary of the method: as §1

NCI-H524 = NCI-H524 (Lung), 20 micromolar, 72 hrs
Summary of the method: as §1

C8166 = C8166 (Leukemia), 20 micromolar, 72 hrs
Summary of the method: as §1

NCI-H2405 = NCI-H2405 (Lung), 20 micromolar, 72 hrs
Summary of the method: as §1

MSTO-211-H = MSTO-211-H (Lung), 20 micromolar, 72 hrs
Summary of the method: as §1

T47D = T47D (Breast), 20 micromolar, 72 hrs
Summary of the method: as §1

BT-549 = BT-549 (Breast), 20 micromolar, 72 hrs
Summary of the method: as §1

M059J = M059J (Brain), 20 micromolar, 72 hrs
Summary of the method: as §1

NCI-H1623 = NCI-H1623 (Lung), 20 micromolar, 72 hrs
Summary of the method: as §1

HCC1395 = HCC1395 (Breast), 20 micromolar, 72 hrs
Summary of the method: as §1

HCC1937 = HCC1937 (Breast), 20 micromolar, 72 hrs
Summary of the method: as §1

NCI-H1694 = NCI-H1694 (Lung), 20 micromolar, 72 hrs
Summary of the method: as §1

CW-2 = CW-2 (Colon), 20 micromolar, 72 hrs
Summary of the method: as §1

ZR-75-30 = ZR-75-30 (Breast), 20 micromolar, 72 hrs
Summary of the method: as §1

Bel-7402 = Bel-7402 (Liver), 20 micromolar, 72 hrs
Summary of the method: as §1

Panc 03.27 = Panc 03.27 (Pancreas), 20 micromolar, 72 hrs
Summary of the method: as §1

Colo 205 = settings: Colo 205, 20 micromolar, 72 hrs
Summary of the method: as §1

ChaGo-K-1 = ChaGo-K-1 (Lung), 20 micromolar, 72 hrs
Summary of the method: as §1

CCF-STTG1 = CCF-STTG1 (Brain), 20 micromolar, 72 hrs
Summary of the method: as §1

TCCSUP = TCCSUP (Urinary bladder), 20 micromolar, 72 hrs
Summary of the method: as §1

HCC1599 = HCC1599 (Breast), 20 micromolar, 72 hrs
Summary of the method: as §1

C3A = C3A (Liver), 20 micromolar, 72 hrs
Summary of the method: as §1

NCI-H2347 = NCI-H2347 (Lung), 20 micromolar, 72 hrs
Summary of the method: as §1

T98G = T98G (Brain), 20 micromolar, 72 hrs
Summary of the method: as §1

SMILES	Percent Inhibition (HCC1569) [%]	Percent Inhibition (NCI-H1770) [%]	Percent Inhibition (HT-1197) [%]	Percent Inhibition (NCI-H28) [%]	Percent Inhibition (HGC-27) [%]	Percent Inhibition (HPAF-II) [%]	Percent Inhibition (RL95) [%]	Percent Inhibition (HEC-1-A) [%]	Percent Inhibition (SW13) [%]	Percent Inhibition (A704) [%]	Percent Inhibition (BT-474) [%]	Percent Inhibition (A498) [%]	Percent Inhibition (J82) [%]	Percent Inhibition (NCI-H524) [%]	Percent Inhibition (C8166) [%]	Percent Inhibition (NCI-H2405) [%]	Percent Inhibition (MSTO-211-H) [%]	Percent Inhibition (T47D) [%]	Percent Inhibition (BT-549) [%]	Percent Inhibition (M059J) [%]	also measured
COc1cc(O)c2c(=O)c3c(CC=C(C)C)cc(O)c(O)c3oc2c1CC=C(C)CCC=C(C)C [Go-23]	97	98	96	82	97	82	97	76	96	96	70	94	97	98	95	98	95	94	96	93	Percent Inhibition (NCI-H1623): 92%; Percent Inhibition (HCC1395): 97%; Percent Inhibition (HCC1937): 96%; Percent Inhibition (NCI-H1694): 98%; Percent Inhibition (CW-2): 97%; Percent Inhibition (ZR-75-30): 95%; Percent Inhibition (Bel-7402): 96%; Percent Inhibition (Panc 03.27): 92%; Percent Inhibition (Colo 205): 96%; Percent Inhibition (ChaGo-K-1): 94%; Percent Inhibition (CCF-STTG1): 87%; Percent Inhibition (TCCSUP): 93%; Percent Inhibition (HCC1599): 98%; Percent Inhibition (C3A): 77%; Percent Inhibition (NCI-H2347): 68%; Percent Inhibition (T98G): 98%
O=c1c2cc(O)ccc2oc2cccc(O)c12 [Gof3]	29	17	28	27	34	15	42	19	33	23	7	39	20	18	29	-13	36	10	16	53	Percent Inhibition (NCI-H1623): -7%; Percent Inhibition (HCC1395): 35%; Percent Inhibition (HCC1937): 8%; Percent Inhibition (NCI-H1694): 29%; Percent Inhibition (CW-2): 39%; Percent Inhibition (ZR-75-30): 41%; Percent Inhibition (Bel-7402): 45%; Percent Inhibition (Panc 03.27): 7%; Percent Inhibition (Colo 205): 22%; Percent Inhibition (ChaGo-K-1): 12%; Percent Inhibition (CCF-STTG1): 31%; Percent Inhibition (TCCSUP): 32%; Percent Inhibition (HCC1599): 36%; Percent Inhibition (C3A): 7%; Percent Inhibition (NCI-H2347): 20%; Percent Inhibition (T98G): 27%
O=C1c2c(O)cc(O)cc2OC(c2ccc(O)cc2)C1c1c(O)cc(O)c2c(=O)cc(-c3ccc(O)c(O)c3)oc12 (stereo not drawn) [WZ-4]	-17	-10	-4	0	-4	-10	-2	10	5	-1	-5	4	-5	-18	-3	-14	6	6	-12	-1	Percent Inhibition (NCI-H1623): -15%; Percent Inhibition (HCC1395): 16%; Percent Inhibition (HCC1937): 0%; Percent Inhibition (NCI-H1694): -10%; Percent Inhibition (CW-2): 11%; Percent Inhibition (ZR-75-30): 8%; Percent Inhibition (Bel-7402): -3%; Percent Inhibition (Panc 03.27): -16%; Percent Inhibition (Colo 205): -6%; Percent Inhibition (ChaGo-K-1): -14%; Percent Inhibition (CCF-STTG1): 0%; Percent Inhibition (TCCSUP): 3%; Percent Inhibition (HCC1599): 8%; Percent Inhibition (C3A): -2%; Percent Inhibition (NCI-H2347): -4%; Percent Inhibition (T98G): -2%
